Results from US9387220B2, “Method for inducing hepatocyte proliferation and uses thereof” (CAN-FITE BIOPHARMA LTD., priority 2007, dated 2016).
Where two headings read alike, the source gives them in different places.

Tests used:
[1] = Human studies with orally-administered Cl-IB-MECA, plasma half life; format: in vivo; conditions: oral administration, read-out: half life in human plasma from peak concentration
Text: An effective amount of an active agent may also be determined based on human PK studies. […] On the basis of said human trials twice daily administration appears to be a preferred administration regiment. […] On the basis of this human data, the administration regiment in human subjects may preferably be once or twice daily although other regiments cannot be excluded.

hepatocytes [2] = assay: Hepatocyte proliferation of regenerated liver after partial hepatectomy; format: in vivo, rat; conditions: rats, 70% hepatectomy, 100 μg/kg orally TID; control group 30%; FIG. 1
liver [3] = assay: Serum levels of liver enzymes ALT and AST after partial hepatectomy with ischemia/reperfusion; format: in vivo, rat
liver [4] = assay: Liver regeneration (liver weight) after partial hepatectomy; format: in vivo, rat; conditions: rats, 24 and 48 hours after partial hepatectomy; FIG. 6
Description: Male Wistar rats (275-300 g) were fasted 12 h before the procedure. The rats were anaesthetized with Ketamin (45 mg/kg) and Xylazine (5 mg/kg). Laparatomy was performed via a sub costal, bilateral incision. The main portal pedicle to the total liver was clamped for a period of 10 minutes, during which, a 70% hepatectomy was performed. After 10 minutes of ischemia (in the course of the hepatectomy), blood flow was restored by de-clamping.
Rats underwent laparatomy and the main portal pedicle to the total liver was clamped for a period of 10 minutes, during which a 70% hepatectomy was performed. After 10 minutes of ischemia blood flow was restored by de-clamping.
Livers were collected 24 and 48 hours after the partial […]. The growth of residual liver lobes was assessed using the following equation: […]
A is the estimated total liver weight before hepatectomy (3.4% of a rat's total weight),
B is the weight of liver resected during the hepatectomy, and
C is the weight of the regenerated liver at the end of the study.

hepatocytes [5] = assay: PCNA staining of hepatocytes after partial hepatectomy; format: in vivo, rat; conditions: rats, 48 hours after partial hepatectomy; FIG. 5B
A2B adenosine receptor = molecular target: T1, A2B adenosine receptor (Homo sapiens, UniProt P29275); assay: Binding affinity to adenosine A2B receptor
T1 sequence (P29275 1-332): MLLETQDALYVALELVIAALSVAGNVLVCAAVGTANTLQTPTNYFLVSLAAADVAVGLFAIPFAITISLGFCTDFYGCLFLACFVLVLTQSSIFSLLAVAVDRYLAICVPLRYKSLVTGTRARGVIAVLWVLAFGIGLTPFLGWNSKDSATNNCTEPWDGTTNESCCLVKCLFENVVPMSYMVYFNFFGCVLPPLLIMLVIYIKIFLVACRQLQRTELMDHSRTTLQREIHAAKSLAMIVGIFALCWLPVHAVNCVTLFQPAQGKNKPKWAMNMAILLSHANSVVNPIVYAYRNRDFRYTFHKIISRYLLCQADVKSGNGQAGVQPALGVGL

[6] = oral administration; cited from earlier work
[7] = mice; cited from earlier work

IC50 (A2B adenosine receptor; read-out: IC50)	Ki (A2B adenosine receptor; read-out: Ki)	SMILES	half-life [1]	level of regeneration (hepatocyte proliferation) (hepatocytes [2])	ALT serum level vs control group (liver [3]; rats, 2, 4 and 48 hours after partial hepatectomy, 100 μg/kg orally TID, FIG. 2A)	AST serum level vs control group (liver [3]; rats, 2, 4 and 48 hours after partial hepatectomy, 100 μg/kg orally TID, FIG. 2B)	serum levels of liver enzymes (AST and ALT) vs vehicle and untreated rats (liver [3]; rats, partial hepatectomy, further assay, FIG. 3)	liver weight (% of regeneration) vs vehicle (liver [4])	number of PCNA positive hepatocytes vs vehicle (hepatocytes [5])	IC50 (A2B adenosine receptor)	Ki (A2B adenosine receptor)	half life in human plasma from peak concentration [6]	half life [7]
–	–	CNC(=O)[C@H]1O[C@@H](n2cnc3c(NCc4cccc(I)c4)nc(Cl)nc32)[C@H](O)[C@@H]1O [Cl-IB-MECA, 2-chloro-N^6-(3-iodobenzyl)-adenosine-5′-N-methyl-uronamide]	12 to 14 h	45.1%	significantly decreased	significantly decreased	reduction	increase	significantly increased	No activity	No activity	–	–
47.6 µM	42.3 µM	CNC(=O)[C@H]1O[C@@H](n2cnc3c(NCc4cccc(I)c4)ncnc32)[C@H](O)[C@@H]1O [IB-MECA, 1-deoxy-1-{6-[({3-iodophenyl}methyl)amino]-9H-purine-9-yl}-N-methyl-β-D-ribofuranuronamide]	–	–	–	–	–	–	–	–	–	8 to 10 h	1.5 h
